# Columns and labels:
# [1] = tested on: HCT-116 (colon cancer) cell line; assay: MTT cell viability assay, HCT-116; assay type: cell-based, human; conditions: for IC50: MTT, 72 h, 1-100 µM, mean ± SD
# Experimental: (§1) Compounds 6–49 were evaluated in vitro for their effects on the viability of the three human cancer cell lines: HCT-116 (colon cancer), MCF-7 (breast cancer) and HeLa (cervical cancer) as well as the non-cancerous keratinocyte cell line (HaCaT). The concentration required for 50% inhibition of cell viability IC50 was calculated and compared with the reference drug cisplatin, the results are shown in Table 1.
# (§2) Cell lines: colon cancer (HCT-116), breast cancer (MCF-7), cervical cancer (HeLa), the human keratinocyte cell line (HaCaT); NT—not tested; IC50 was measured at concentrations 1, 10, 25, 50, and 100 µM. IC50 values are expressed as the mean ± SD of at last three independent experiments.
# (§3) All chemicals, if not stated otherwise, were obtained from Sigma–Aldrich (St. Louis, MO, USA). The HCT-116 cell lines was purchased from ATCC (ATCC-No: CCL-247), while the MCF-7, HeLa and HaCaT cell lines were purchased from Cell Lines Services (Eppelheim, Germany). Cells were cultured in Dulbecco’s modified Eagle’s medium (DMEM) supplemented with 10% fetal bovine serum, 2 mM glutamine, 100 units/mL penicillin, and 100 µg/mL streptomycin. Cultures were maintained in a humidified atmosphere with 5% carbon dioxide at 37 °C in an incubator (Heraceus, HeraCell).
# (§4) Cell viability was examined using the MTT (3-(4,5-dimethylthiazol-2-yl)-2,5-diphenyltetrazolium bromide) assay. Cells were seeded in 96-well plates at a density of 5 × 10^3 cells/well and treated for 72 h with the tested compounds in the concentration range of 1–100 µM (1, 10, 25, 50 and 100 µM). Then, MTT (0.5 mg/mL) was added to the medium and cells were further incubated for 2 h at 37 °C. In the next stage, cells were lysed with DMSO and the absorbance of the formazan solution was measured at 550 nm with a plate reader (1420 multilabel counter, Victor, Jügesheim, Germany). The experiment was performed in triplicate. Values are expressed as the mean ± SD of at least three independent experiments. Cisplatin was used as a positive control.
# [2] = tested on: MCF-7 (breast cancer) cell line; assay: MTT cell viability assay, MCF-7; assay type: cell-based, human; conditions: for IC50: MTT, 72 h, 1-100 µM, mean ± SD
# Experimental: as §1, §2, §3, §4
# [3] = tested on: HeLa (cervical cancer) cell line; assay: MTT cell viability assay, HeLa; assay type: cell-based, human; conditions: 72 h, MTT, 1-100 µM, mean ± SD
# Experimental: as §1, §2, §3, §4
# [4] = tested on: HaCaT (non-cancerous keratinocyte cell line); assay: MTT cell viability assay, HaCaT; assay type: cell-based; conditions: Homo sapiens, 72 h, 1-100 µM, mean ± SD, non-cancerous cells
# Experimental: as §1, §2, §3, §4
# [5] = tested on: HCT-116, MCF-7 and HeLa cell lines; assay: MTT cell viability assay, all tested cancer cell lines taken together; assay type: cell-based; conditions: Homo sapiens; range over HCT-116, MCF-7 and HeLa; read-out: IC50 toward all of the tested cell lines (range over the lines)
# Experimental: as §1, §2, §3, §4
SMILES,"IC50 ([1]; Homo sapiens, HCT-116, 72 h) [µM]","IC50 ([2]; Homo sapiens, MCF7, 72 h) [µM]","IC50 ([3]; Homo sapiens, HeLa) [µM]",IC50 [4] [µM],IC50 [5] [µM],IC50 [2] [µM],IC50 [1] [µM],selectivity ratio HaCaT/HCT-116 ([1]; ratio of IC50 values),selectivity ratio HaCaT/MCF-7 ([2]; ratio of IC50 values),IC50 [3] [µM]
"Cc1cc(S(=O)(=O)N=c2[nH]c3ccccc3[nH]2)c(SCc2nc(N)nc(N3CCc4ccccc43)n2)cc1Cl [Compound 9, 2-{[4-Amino-6-(indolin-1-yl)-1,3,5-triazin-2-yl]metylthio}-N-(1H-benzo[d]imidazol-2(3H)-ylidene)-4-chloro-5-methylbenzenesulfonamide]",25 ± 1,20 ± 1,23 ± 1,42 ± 2,17 to 30,–,–,–,–,–
"Cc1cc(S(=O)(=O)N=c2[nH]c3ccccc3[nH]2)c(SCc2nc(N)nc(N3CCN(C)CC3)n2)cc1Cl [Compound 18, 2-{[4-Amino-6-(4-methylpiperazin-1-yl)-1,3,5-triazin-2-yl]metylthio}-N-(1H-benzo[d]imidazol-2(3H)-ylidene)-4-chloro-5-methylbenzenesulfonamide]",42 ± 2,> 100,61 ± 2,84 ± 3,42 to 82,82 ± 3,–,–,–,–
"Cc1cc(S(=O)(=O)N=c2[nH]c3ccccc3[nH]2)c(SCc2nc(N)nc(N3CCN(c4ccccc4)CC3)n2)cc1Cl [Compound 19, 2-{[4-Amino-6-(4-phenylpiperazin-1-yl)-1,3,5-triazin-2-yl]methylthio}-N-(1H-benzo[d]imidazol-2(3H)-ylidene)-4-chloro-5-methylbenzenesulfonamide]",15 ± 1,19 ± 1,18 ± 1,31 ± 1,7 to 19,–,–,–,–,–
"Cc1cc(S(=O)(=O)N=c2[nH]c3ccccc3[nH]2)c(SCc2nc(N)nc(N3CCN(c4ccc(F)cc4)CC3)n2)cc1Cl [Compound 20, 2-[{4-Amino-6-[4-(4-fluorophenyl)piperazin-1-yl]-1,3,5-triazin-2-yl}methylthio]-N-(1H-benzo[d]imidazol-2(3H)-ylidene)-4-chloro-5-methylbenzenesulfonamide]",16 ± 0.5,17 ± 0.5,17 ± 1,35 ± 1,7 to 19,–,–,–,–,–
"Cc1cc(S(=O)(=O)N=c2[nH]c3ccccc3[nH]2)c(SCc2nc(N)nc(N3CCN(c4ccc(Cl)cc4)CC3)n2)cc1Cl [Compound 23, 2-[{4-Amino-6-[4-(4-chlorophenyl)piperazin-1-yl]-1,3,5-triazin-2-yl}methylthio]-N-(1H-benzo[d]imidazol-2(3H)-ylidene)-4-chloro-5-methylbenzenesulfonamide]",16 ± 0.5,17 ± 0.5,17 ± 1,35 ± 1,7 to 19,–,–,–,–,–
"Cc1cc(S(=O)(=O)N=c2[nH]c3ccccc3[nH]2)c(SCc2nc(N)nc(N3CCN(S(=O)(=O)c4ccccc4)CC3)n2)cc1Cl [Compound 32, 2-[{4-Amino-6-[4-(phenylsulfonyl)piperazin-1-yl]-1,3,5-triazin-2-yl}methylthio]-N-(1H-benzo[d]imidazol-2(3H)-ylidene)-4-chloro-5-methylbenzenesulfonamide]",–,> 100,–,–,137 to 280,137 ± 3,–,–,–,–
"Cc1cc(S(=O)(=O)N=c2[nH]c3ccc(F)cc3[nH]2)c(SCc2nc(N)nc(N3CCc4ccccc43)n2)cc1Cl [Compound 34, 2-{[4-Amino-6-(indolin-1-yl)-1,3,5-triazin-2-yl]metylthio}-4-chloro-N-(5-fluoro-1H-benzo[d]imidazol-2(3H)-ylidene)-5-methylbenzenesulfonamide]",17 ± 1,25 ± 1,30 ± 1,41 ± 1,17 to 30,–,–,–,–,–
"Cc1cc(S(=O)(=O)N=c2[nH]c3ccc(Cl)cc3[nH]2)c(SCc2nc(N)nc(Nc3ccccc3)n2)cc1Cl [Compound 42, 2-{[4-Amino-6-(phenylamino)-1,3,5-triazin-2-yl]methylthio}-4-chloro-N-(5-chloro-1H-benzo[d]imidazol-2(3H)-ylidene)-5-methylbenzenesulfonamide]",18 ± 1,23 ± 1,24 ± 1,37 ± 1,17 to 30,–,–,–,–,–
"Cc1cc(S(=O)(=O)N=c2[nH]c3ccc(Cl)cc3[nH]2)c(SCc2nc(N)nc(N3CCN(c4ccc(F)cc4)CC3)n2)cc1Cl [Compound 46, 2-[{4-Amino-6-[4-(4-fluorophenyl)piperazin-1-yl]-1,3,5-triazin-2-yl}metylthio]-4-chloro-N-(5-chloro-1H-benzo[d]imidazol-2(3H)-ylidene)-5-methylbenzenesulfonamide]",7 to 11,17 to 19,11 to 18,28 ± 1,7 to 19,15 ± 1,7 ± 0.1,4,2,18 ± 1
"COc1ccccc1N1CCN(c2nc(N)nc(CSc3cc(Cl)c(C)cc3S(=O)(=O)N=c3[nH]c4ccc(Cl)cc4[nH]3)n2)CC1 [Compound 49, 2-[{4-Amino-6-[4-(2-methoxyphenyl)piperazin-1-yl]-1,3,5-triazin-2-yl}methylthio]-4-chloro-N-(5-chloro-1H-benzo[d]imidazol-2(3H)-ylidene)-5-methylbenzenesulfonamide]",30 ± 1,35 ± 1,34 ± 1,96 ± 1,–,–,–,–,–,–

# Source: PMC7215599, “Synthesis, Antitumor Evaluation, Molecular Modeling and Quantitative Structure–Activity Relationship (QSAR) of Novel 2-[(4-Amino-6-N-substituted-1,3,5-triazin-2-yl)methylthio]-4-chloro-5-methyl-N-(1H-benzo[d]imidazol-2(3H)-ylidene)Benzenesulfonamides” (International Journal of Molecular Sciences, 2020)
